Article PMC12181424, “A genetically tractable branch of environmental Pedobacter from the phylum Bacteroidota represents a hotspot for natural product discovery” (Scientific Reports, 2025)
Non-standard residues stand in square brackets, D forms with d. Residues, ends and D or L forms follow the SMILES beside them. *: point of attachment. Isovaleryl = CC(C)CC(=O)*; ΔVal = CC(C)=C(N)C(=O)O; X1 = CC[C@H](C)C(=O)*

Columns and labels:
[1] = tested on: P. cryoconitis DSM 14825^T; test: Antibiotic sensitivity screen of wild-type strain (choice of selection marker); format: cell-based, Pedobacter cryoconitis; details: P. cryoconitis DSM 14825^T wild type
Excerpt: (§1) We built a random transposon insertion plasmid (pCRYO1 (Fig. S2)) based on a HIMAR transposon pSAMbt system, initially designed for Bacteroides thetaiotaomicron in which we introduced the constitutive P. cryoconitis promoters of gyrB and rpl13 and used erythromycin as a resistance marker[41] (Fig. 3A). We obtained erythromycin-resistant clones by conjugation and electroporation and confirmed the presence of the ermR gene by colony PCR (Material and Methods).
(§2) To genetically modify P. cryoconitis, we first screened different antibiotics (streptomycin, ampicillin, kanamycin, apramycin, chloramphenicol, and erythromycin) against P. cryoconitis PAMC 27485 and P. cryoconitis DSM 14825^T. Only erythromycin (100 µg/ml) and chloramphenicol (150 µg/ml) were effective and selected as markers. A transposon plasmid, pCRYO-01 was modified based on pSAM bt[30] by assembling PCR-amplified regions upstream of the P. cryoconitis PAMC 27485 gyrB (AMQ00279.1, 228 bps) and rpl13 genes (AMQ00867.1, 178 bps) with the erythromycin resistance (ermR) and the transposase genes via Gibson Assembly. PCR reactions were carried out using Q5 polymerase (New England Biolabs) as specified by the manufacturer. Conjugation experiments were performed using E. coli WM3064/pCRYO-01 and P. cryoconitis (overnight cultures) on LB, POM, and R2A (with 5 mM final MgCl2) agar with different donor-recipient ratios (1:1, 2:1, 3:1) for 48 h. Cells were scraped off, serially diluted, and plated on R2A agar plates with erythromycin (50, 100, 150, and 200 µg/ml). Erythromycin-resistant colonies were tested for ermR presence and plasmid backbone absence by colony PCR. A 3:1 donor-recipient ratio at 23 °C yielded the highest number of transformants. Dilution of the inoculum at 10^− 1 or 10^− 2 was optimal for single colonies, with more transformants observed in P. cryoconitis PAMC 27485 compared to P. cryoconitis DSM 14825^T. For electroporation, P. cryoconitis PAMC 27485 cells (OD 0.4) were made competent by washing 3-times with ice-cold 10% glycerol (centrifugation at 5000 rpm). Aliquots of 50 µl were mixed with pCRYO1. After electroporation (12.5 kV/cm), cells were cultured without antibiotics for 5 h, then plated on R2A with 150 µg/ml erythromycin. Colonies appeared within 3 days, with 100% carrying the transposon cassette, though efficiency was lower than with conjugation. Electroporation of competent cells stored at -80 °C was also possible.

[2] = tested on: P. cryoconitis PAMC 27485; test: as above; format: cell-based, Pedobacter cryoconitis; details: P. cryoconitis PAMC 27485 wild type
Excerpt: as §1, §2

[3] = tested on: Staphylococcus aureus ATCC33592; format: cell-based
Candida albicans FH2173 = format: cell-based
rhodesain = details: tested concentration 20 µM; procedure of Brinkmann et al.
Excerpt: The cryopeptins are linear lipopeptides containing the non-proteinogenic amino acid dehydrovaline. This amino acid is a rare building block, and its occurrence is yet limited to linear peptides. For instance, dehydrovaline is found in cytotoxic yakuamides from the sponge Ceratopsion sp[42]. and in the myxobacterial antibiotic myxovalargin[43]. […] In addition, 4 and 5 underwent screening against the human cysteine proteases cathepsin B and L, and rhodesain, the cysteine protease of Trypanosoma brucei rhodesiense according to the procedure described in[45].
The minimum inhibitory concentrations (MIC) of pure compounds were determined as described by Orban et al.3 Pure compounds were screened against Escherichia coli ATCC35218, Mycobacterium smegmatis ATCC607, Staphylococcus aureus ATCC33592, Candida albicans FH2173 and Septoria tritici MUCL45407. Protease testings (human cysteine proteases cathepsin B and L, trypanosomal cysteine protease rhodesain) were performed at concentrations of 20 μM as described in Brinkmann et al.4.

[4] = tested on: human cysteine protease cathepsin B; test: Cysteine protease inhibition testing; format: biochemical; details: tested concentration 20 µM; procedure of Brinkmann et al.
[5] = tested on: human cysteine protease cathepsin L; test: Cysteine protease inhibition testing; format: biochemical; details: tested concentration 20 µM; procedure of Brinkmann et al.
[6] = tested on: Escherichia coli ATCC35218; format: cell-based
[7] = tested on: Septoria tritici MUCL45407; format: cell-based
[8] = tested on: bacterial and fungal indicator strains; test: Screening against bacterial and fungal indicator strains (whole panel, as summarised in the text); format: cell-based; details: summary in the text of Table S11; no growth inhibitory effects
[9] = tested on: Mycobacterium smegmatis ATCC607; format: cell-based

SMILES | concentration that inhibited the growth of the wild-type strain [1] [µg/mL] | concentration that inhibited the growth of the wild-type strain [2] [µg/mL] | MIC Staphylococcus aureus ATCC 33592 [3] [µg/mL] | MIC Candida albicans FH2173 (Candida albicans FH2173) [µg/mL] | protease inhibitory activity, rhodesain (rhodesain) | protease inhibitory activity, cathepsin B [4] | protease inhibitory activity, cathepsin L [5] | MIC Escherichia coli ATCC 35218 [6] [µg/mL] | MIC Septoria tritici MUCL45407 [7] [µg/mL] | Minimal inhibitory concentration against bacterial and fungal indicator strains [8] [µg/mL] | MIC Myobacterium smegmatis ATCC607 [9] [µg/mL]
O=C(N[C@H](CO)[C@H](O)c1ccc([N+](=O)[O-])cc1)C(Cl)Cl [chloramphenicol] | 150 | 150 | – | – | – | – | – | – | – | – | –
CC[C@H](C)C(=O)N[C@@H](Cc1ccccc1)C(=O)NC(C(=O)N[C@@H](CCCNC(=N)N)C(=O)NC(C(=O)N[C@@H](CC(C)C)C(=O)O)=C(C)C)=C(C)C [cryopeptin D (4)] (X1-F[ΔVal]R[ΔVal]L-OH) | – | – | >128 | >128 | no protease inhibitory activity was observed | no protease inhibitory activity was observed | no protease inhibitory activity was observed | >128 | >128 | > 128 | >128
CC(C)=C(NC(=O)[C@H](Cc1ccccc1)NC(=O)CC(C)C)C(=O)N[C@@H](CCCNC(=N)N)C(=O)NC(C(=O)N[C@@H](CC(C)C)C(=O)O)=C(C)C [cryopeptin E (5)] (Isovaleryl-F[ΔVal]R[ΔVal]L-OH; N-terminus and C-terminus assumed) | – | – | >128 | >128 | no protease inhibitory activity was observed | no protease inhibitory activity was observed | no protease inhibitory activity was observed | >128 | >128 | – | >128
CC[C@H]1OC(=O)[C@H](C)[C@@H](O[C@H]2C[C@@](C)(OC)[C@@H](O)[C@H](C)O2)[C@H](C)[C@@H](O[C@@H]2O[C@H](C)C[C@H](N(C)C)[C@H]2O)[C@](C)(O)C[C@@H](C)C(=O)[C@H](C)[C@@H](O)[C@]1(C)O [erythromycin] | 100 | 100 | – | – | – | – | – | – | – | – | –
